According to paper PMC10314921, “Eltrombopag directly activates BAK and induces apoptosis” (Cell Death & Disease, 2023):

Biological target: T1, BAK (Homo sapiens, UniProt Q16611)
T1 construct: gene BAK1; BAKΔTM (lacking its transmembrane domain) for MST; BAK 15–186 for NMR
T1 sequence (Q16611 15-186): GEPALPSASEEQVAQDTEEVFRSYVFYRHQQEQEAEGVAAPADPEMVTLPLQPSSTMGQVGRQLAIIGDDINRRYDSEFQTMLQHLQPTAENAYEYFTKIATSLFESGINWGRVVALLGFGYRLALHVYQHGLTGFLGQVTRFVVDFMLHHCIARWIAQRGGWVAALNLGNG
Test: microscale thermophoresis; 1H, […]-HSQC NMR titration; BAK oligomerization and liposome release as support
Type: binding

Compound: CC1=NN(c2ccc(C)c(C)c2)C(=O)/C1=N\Nc1cccc(-c2cccc(C(=O)O)c2)c1O [Eltrombopag]
- Kd: 1200 ± 700 nM
